Experimental data: ChEMBL document CHEMBL1159141, “Synthesis and biology of substituted 3-phenyl taxol analogues” (1994)

Assays:
[1] = molecular target: Tubulin alpha chain (Sus scrofa) (UniProt P02550); assay: In vitro concentration which causes polymerization of 50% of the tubulin, activity relative to taxol (ED50=1); assay type: functional
B16 = assay: In vitro concentration which causes 50% inhibition of proliferation of B16 melanoma cells, activity relative to taxol (ED50=1); assay type: functional, Mus musculus
HCT-116 = assay: In vitro concentration which causes 50% inhibition against HCT116 cell line, activity relative to taxol (ED50=1); assay type: functional, Homo sapiens

Chain of Tubulin alpha chain (Sus scrofa) (P02550 whole entry, looked up): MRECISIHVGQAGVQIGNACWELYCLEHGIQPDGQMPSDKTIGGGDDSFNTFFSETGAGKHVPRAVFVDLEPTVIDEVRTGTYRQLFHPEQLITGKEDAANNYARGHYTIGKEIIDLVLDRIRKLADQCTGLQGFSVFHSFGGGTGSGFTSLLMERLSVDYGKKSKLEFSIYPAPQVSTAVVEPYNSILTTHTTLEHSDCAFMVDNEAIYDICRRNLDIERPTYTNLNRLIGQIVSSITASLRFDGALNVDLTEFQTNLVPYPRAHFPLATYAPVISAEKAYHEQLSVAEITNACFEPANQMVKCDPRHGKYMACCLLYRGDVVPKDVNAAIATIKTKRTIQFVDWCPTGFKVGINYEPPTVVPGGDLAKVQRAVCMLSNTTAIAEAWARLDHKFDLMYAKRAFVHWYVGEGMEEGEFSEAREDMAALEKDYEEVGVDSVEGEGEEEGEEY

ED50 ratio [1]	SMILES	ED50 ratio (B16)	ED50 ratio (HCT-116)
1	CC(=O)O[C@H]1C(=O)[C@@]2(C)[C@H]([C@H](OC(=O)c3ccccc3)[C@]3(O)C[C@H](OC(=O)[C@H](O)[C@@H](NC(=O)c4ccccc4)c4ccccc4)C(C)=C1C3(C)C)[C@]1(OC(C)=O)CO[C@@H]1C[C@@H]2O [PACLITAXEL]	1	–
2.4	CC(=O)O[C@H]1C(=O)[C@@]2(C)[C@H]([C@H](OC(=O)c3ccccc3)[C@]3(O)C[C@H](OC(=O)[C@H](O)[C@H](NC(=O)c4ccccc4)c4ccc(C)cc4)C(C)=C1C3(C)C)[C@]1(OC(C)=O)CO[C@@H]1C[C@@H]2O	3	–
4.4	CC(=O)O[C@H]1C(=O)[C@@]2(C)[C@H]([C@H](OC(=O)c3ccccc3)[C@]3(O)C[C@H](OC(=O)[C@H](O)[C@H](NC(=O)c4ccccc4)c4cccc(Cl)c4)C(C)=C1C3(C)C)[C@]1(OC(C)=O)CO[C@@H]1C[C@@H]2O	6.7	–

Second part, the compound before the results:

SMILES	ED50 ratio [1]	ED50 ratio (B16)	ED50 ratio (HCT-116)
CC(=O)O[C@H]1C(=O)[C@@]2(C)[C@H]([C@H](OC(=O)c3ccccc3)[C@]3(O)C[C@H](OC(=O)[C@H](O)[C@H](NC(=O)c4ccccc4)c4ccccc4C)C(C)=C1C3(C)C)[C@]1(OC(C)=O)CO[C@@H]1C[C@@H]2O	5.1	>33	–
CC(=O)O[C@H]1C(=O)[C@@]2(C)[C@H]([C@H](OC(=O)c3ccccc3)[C@]3(O)C[C@H](OC(=O)[C@H](O)[C@H](NC(=O)c4ccccc4)c4ccc(F)cc4)C(C)=C1C3(C)C)[C@]1(OC(C)=O)CO[C@@H]1C[C@@H]2O	1.1	1.2	–
CC(=O)O[C@H]1C(=O)[C@@]2(C)[C@H]([C@H](OC(=O)c3ccccc3)[C@]3(O)C[C@H](OC(=O)[C@H](O)[C@H](NC(=O)c4ccccc4)c4ccc(Cl)c(Cl)c4)C(C)=C1C3(C)C)[C@]1(OC(C)=O)CO[C@@H]1C[C@@H]2O	7.1	40	–
CC(=O)O[C@H]1C(=O)[C@@]2(C)[C@H]([C@H](OC(=O)c3ccccc3)[C@]3(O)C[C@H](OC(=O)[C@H](O)[C@H](NC(=O)c4ccccc4)c4cccc(N(C)C)c4)C(C)=C1C3(C)C)[C@]1(OC(C)=O)CO[C@@H]1C[C@@H]2O	4.6	5.8	–
COc1ccc([C@@H](NC(=O)c2ccccc2)[C@@H](O)C(=O)O[C@H]2C[C@@]3(O)[C@@H](OC(=O)c4ccccc4)[C@@H]4[C@]5(OC(C)=O)CO[C@@H]5C[C@H](O)[C@@]4(C)C(=O)[C@H](OC(C)=O)C(=C2C)C3(C)C)cc1	0.5	1	–
CC(=O)O[C@H]1C(=O)[C@@]2(C)[C@H]([C@H](OC(=O)c3ccccc3)[C@]3(O)C[C@H](OC(=O)[C@H](O)[C@H](NC(=O)c4ccccc4)c4ccc([N+](=O)[O-])cc4)C(C)=C1C3(C)C)[C@]1(OC(C)=O)CO[C@@H]1C[C@@H]2O	1.1	–	35
CC(=O)O[C@H]1C(=O)[C@@]2(C)[C@H]([C@H](OC(=O)c3ccccc3)[C@]3(O)C[C@H](OC(=O)[C@H](O)[C@H](NC(=O)c4ccccc4)c4ccc(Cl)cc4)C(C)=C1C3(C)C)[C@]1(OC(C)=O)CO[C@@H]1C[C@@H]2O	1.9	2.2	–
